Measured values: patent US20240122912A1, “A NANOFORMULATION FOR GLIOMA TREATMENT AND PROCESS FOR ITS PREPARATION THEREOF” (COUNCIL OF SCIENTIFIC AND INDUSTRIAL RESEARCH, priority 2021, published 2024)

Tests used:
[1] = system: CHO, HEK293; test: MTT cytotoxicity assay in non-cancer cells; type: cell-based; conditions: same concentration ranges
[2] = system: orthotopic GL261 glioma; test: Orthotopic glioma model: survivability and tumor lesions; type: in vivo, C57BL/6J mice; conditions: 5 injections, sacrificed on 12th day; H8 8 mg/Kg
Text: Further, to observe the orthotopic brain tumor growth inhibitory efficiency of presently described SR-targeting CH8, we checked survivability among brain tumor-bearing mice following 5 alternate dosing of various treatment groups. Herein, the intraperitoneal injections started on 4th day until 12th day (total 5 injections) since stereotactic-based inoculation of GL261 cells in brain. […] In another set of experiment, animals bearing brain in situ GL261 cells and having 5 injections of various treatments were sacrificed on 12th day to visualize the status of tumor lesions in full brains obtained from respective treatment groups. […] Clearly, the visual effect of respective treatments has reflected on overall survivability of treated mice.

## O=C(CCCN1CCC(O)(c2ccc(Cl)cc2)CC1)c1ccc(F)cc1 [H8]
[1]
  Cytotoxic effects in non-cancer cells: negligible
[2]
  Tumor sites / lesions in isolated brains: comparable effect on tumor sites
